Experiments:
[1] = tested on: T1, hybrid protein LAC4-LACA-KpnI; test: o-nitrophenol release, Lineweaver-Burk; assay type: biochemical, Kluyveromyces lactis;Aspergillus niger; conditions: crude extract (30 μg protein); buffer Z with 1.6 mM MgSO4; ONPG 2-12 mM
T1 construct: single-chain fusion: K. lactis LAC4 without its 297 C-terminal residues (fifth domain), replaced by 274 C-terminal residues of A. niger LACA (from pVK1.1) at KpnI site; expressed in K. lactis MW190-9B; crude extract

[2] = tested on: T1, hybrid protein LAC4-LACA-KpnI; test: D-galactose release by coupled galactose dehydrogenase / NADH kit at […] nm, Lineweaver-Burk; assay type: biochemical, Kluyveromyces lactis;Aspergillus niger; conditions: crude extract (60 μg protein); lactose 5-160 mM

Structure (SMILES) | Km [1] [mM] | Km [2] [mM]
O=[N+]([O-])c1ccccc1O[C@@H]1O[C@H](CO)[C@H](O)[C@H](O)[C@H]1O [ONPG] | 0.8 | –
OC[C@H]1O[C@@H](O[C@H]2[C@H](O)[C@@H](O)C(O)O[C@@H]2CO)[C@H](O)[C@@H](O)[C@H]1O (some centres unmarked) [lactose] | – | 8.7

— article PMC1764428, “Secretion and properties of a hybrid Kluyveromyces lactis-Aspergillus niger β-galactosidase” (Microbial Cell Factories, 2006)
